{"source": "patent US20250066343A1", "about": "“NOVEL CANNAB[…] DERIVATIVE, PREPARATION METHOD THEREFOR, AND COMPOSITION COMPRISING SAME FOR IMPROVING COGNITIVE FUNCTION” (priority 2021, published 2025)", "assay_type_in_all_cases": "biochemical", "key": {"[1]": {"target": "Acetylcholinesterase (AChE) (Homo sapiens, UniProt P22303)", "sequence (P22303 32-614, species assumed)": "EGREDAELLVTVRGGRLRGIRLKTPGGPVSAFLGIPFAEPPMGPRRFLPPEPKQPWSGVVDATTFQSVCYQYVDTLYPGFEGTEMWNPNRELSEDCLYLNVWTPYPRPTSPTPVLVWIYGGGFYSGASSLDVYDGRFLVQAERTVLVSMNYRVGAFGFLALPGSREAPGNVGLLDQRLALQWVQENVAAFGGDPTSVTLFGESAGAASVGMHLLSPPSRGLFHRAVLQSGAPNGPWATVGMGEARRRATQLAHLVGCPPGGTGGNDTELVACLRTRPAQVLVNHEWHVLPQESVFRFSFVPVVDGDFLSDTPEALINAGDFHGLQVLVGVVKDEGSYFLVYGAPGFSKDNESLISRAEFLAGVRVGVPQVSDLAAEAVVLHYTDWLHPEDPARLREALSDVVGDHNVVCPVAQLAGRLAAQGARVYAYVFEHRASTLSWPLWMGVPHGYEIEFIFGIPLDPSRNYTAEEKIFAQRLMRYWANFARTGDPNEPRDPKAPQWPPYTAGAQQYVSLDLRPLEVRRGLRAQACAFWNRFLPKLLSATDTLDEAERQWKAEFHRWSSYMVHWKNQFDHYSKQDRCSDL", "assay": "Acetylcholinesterase inhibitory efficacy (acetylthiocholine/DTNB absorbance assay)", "protocol": "(§1) Acetylcholinesterase or butyrylcholinesterase was prepared at 50 mU/ml, 50 μl was added to a 96-well plate, mixed with the aliquoted compound, and left for 10 minutes. The substrate, acetylthiocoline 0.05 mg/mL or butyrylthiocoline 0.1 mg/ml, was prepared and 50 μl was added to a 96-well plate and left for 10 minutes. Dithionitrobenzoic acid (DTNB) was prepared at 0.3 mg/ml, then 50 μl was added to a 96-well plate and left for 10 minutes."}, "[2]": {"target": "Butyrylcholinesterase (BuChE) (Homo sapiens, UniProt P06276)", "sequence (P06276 29-602)": "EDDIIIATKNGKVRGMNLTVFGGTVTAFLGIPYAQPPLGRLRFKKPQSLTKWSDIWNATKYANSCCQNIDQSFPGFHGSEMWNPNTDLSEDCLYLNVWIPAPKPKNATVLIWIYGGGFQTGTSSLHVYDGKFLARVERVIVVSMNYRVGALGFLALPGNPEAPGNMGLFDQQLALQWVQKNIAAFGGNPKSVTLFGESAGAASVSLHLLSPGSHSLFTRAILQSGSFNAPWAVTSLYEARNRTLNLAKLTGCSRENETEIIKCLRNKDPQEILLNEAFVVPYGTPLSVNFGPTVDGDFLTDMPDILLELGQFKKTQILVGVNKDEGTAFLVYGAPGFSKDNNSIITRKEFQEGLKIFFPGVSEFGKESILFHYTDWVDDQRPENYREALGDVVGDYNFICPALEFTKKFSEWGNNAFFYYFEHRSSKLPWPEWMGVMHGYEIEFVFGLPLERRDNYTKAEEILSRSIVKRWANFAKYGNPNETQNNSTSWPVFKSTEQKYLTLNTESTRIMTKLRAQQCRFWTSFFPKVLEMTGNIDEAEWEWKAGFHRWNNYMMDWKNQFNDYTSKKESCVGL", "assay": "Butyrylcholinesterase inhibitory efficacy (butyrylthiocholine/DTNB absorbance assay)", "settings": "compound 0-200 μM; enzyme 50 mU/ml; N.D. = Not Detected", "protocol": "as §1"}, "[3]": {"target": "T1, Monoamine oxidase B (MAO-B) (Homo sapiens, UniProt P27338)", "T1 sequence (P27338 1-520)": "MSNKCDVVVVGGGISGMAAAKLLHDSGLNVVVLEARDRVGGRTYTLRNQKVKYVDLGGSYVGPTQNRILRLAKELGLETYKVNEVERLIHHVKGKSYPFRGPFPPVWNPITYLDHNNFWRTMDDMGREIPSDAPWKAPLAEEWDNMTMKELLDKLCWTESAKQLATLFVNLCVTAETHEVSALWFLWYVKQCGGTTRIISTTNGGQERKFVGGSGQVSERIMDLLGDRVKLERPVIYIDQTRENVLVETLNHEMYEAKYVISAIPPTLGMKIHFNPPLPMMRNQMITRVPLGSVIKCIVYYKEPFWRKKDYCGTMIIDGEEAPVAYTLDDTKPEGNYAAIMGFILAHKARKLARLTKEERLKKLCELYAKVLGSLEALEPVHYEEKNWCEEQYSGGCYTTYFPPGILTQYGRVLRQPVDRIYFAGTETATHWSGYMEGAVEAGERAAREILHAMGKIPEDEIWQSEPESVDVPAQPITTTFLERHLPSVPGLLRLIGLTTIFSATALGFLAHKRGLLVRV", "assay": "Monoamine oxidase B inhibitory efficacy (kynuramine fluorescence assay)", "settings": "compound 0-200 μM; enzyme 2 mU/mL; kynuramine substrate; N.D. = Not Detected", "protocol": "Samples were prepared by dilution with DMSO to give concentrations of 0, 2, 5, 10, 20, 50, 100, and 200 μM of the compound, and 5 μl was dispensed into a 96-well plate. 135 μl of potassium phosphate buffer (0.1 M, 7.4 pH) was dispensed into a 96-well plate. Monoamine oxidase B was prepared at 2 mU/mL, and 50 μl was added to the 96-well plate, mixed with the dispensed compound, and left for 20 minutes. The substrate, kynuramine solution, was prepared at 100 μM, then 10 μl was added to a 96-well plate and left for 10 min. The reaction was stopped by adding 75 μl of NaOH (2N). The enzyme activity was calculated by measuring the concentration of kynuramine degraded by the enzyme using a fluorometer under 310 nm (excitation)/380 nm (emission) conditions. For the fluorescence blank experiment, potassium phosphate buffer was added instead of monoamine oxidase B to correct the compound-induced fluorescence intensity values."}}}
{"smiles": "CCCCCc1cc2c(c(O)c1C(=O)Nc1ccccc1)C=CC(C)(CCC=C(C)C)O2", "note": "(centres unmarked) [Compound 4b, 5-hydroxy-2-methyl-2-(4-methylpent-3-en-1-yl)-7-pentyl-N-phenyl-2H-chromene-6-carboxamide]", "values": [{"measurement": "IC50", "setting": "[1]", "value": 0.4, "unit": "µM"}, {"measurement": "IC50", "setting": "[2]", "value": 94.6, "unit": "µM"}, {"measurement": "IC50", "setting": "[3]", "value": 176, "unit": "µM"}]}
{"smiles": "CCCCCc1cc2c(c(O)c1C(=O)NC1CCN(C)CC1)C=CC(C)(CCC=C(C)C)O2", "note": "(centres unmarked) [Compound 4q, 5-hydroxy-2-methyl-2-(4-methylpent-3-en-1-yl)-N-(1-methylpiperidin-4-yl)-7-pentyl-2H-chromene-6-carboxamide]", "values": [{"measurement": "IC50", "setting": "[2]", "value": 6.2, "unit": "µM"}, {"measurement": "IC50", "setting": "[3]", "value": 131, "unit": "µM"}]}
{"smiles": "CCCCCc1cc2c(c(O)c1C(=O)N1CCN(CCO)CC1)C=CC(C)(CCC=C(C)C)O2", "note": "(centres unmarked) [Compound 4ae, (5-hydroxy-2-methyl-2-(4-methylpent-3-en-1-yl)-7-pentyl-2H-chromen-6-yl)(4-(2-hydroxyethyl)piperazin-1-yl)methanone]", "values": [{"measurement": "IC50", "setting": "[1]", "value": "< 0.5", "unit": "µM"}, {"measurement": "IC50", "setting": "[2]", "value": 72.3, "unit": "µM"}, {"measurement": "IC50", "setting": "[3]", "value": 55.8, "unit": "µM"}]}
{"smiles": "CCCCCc1cc2c(c(O)c1C(=O)NC1Cc3ccccc3C1)C=CC(C)(CCC=C(C)C)O2", "note": "(centres unmarked) [Compound 4aa, N-(2,3-dihydro-1H-inden-2-yl)-5-hydroxy-2-methyl-2-(4-methylpent-3-en-1-yl)-7-pentyl-2H-chromene-6-carboxamide]", "values": [{"measurement": "IC50", "setting": "[1]", "value": 2, "unit": "µM"}, {"measurement": "IC50", "setting": "[2]", "value": 164, "unit": "µM"}, {"measurement": "IC50", "setting": "[3]", "value": 100, "unit": "µM"}]}
{"smiles": "CCCCCc1cc2c(c(O)c1C(=O)NN1CCCCC1)C=CC(C)(CCC=C(C)C)O2", "note": "(centres unmarked) [Compound 4z, 5-hydroxy-2-methyl-2-(4-methylpent-3-en-1-yl)-7-pentyl-N-(piperidin-1-yl)-2H-chromene-6-carboxamide]", "values": [{"measurement": "IC50", "setting": "[1]", "value": 29, "unit": "µM"}, {"measurement": "IC50", "setting": "[2]", "value": 1.3, "unit": "µM"}, {"measurement": "IC50", "setting": "[3]", "value": 156, "unit": "µM"}]}
